From patent US10689354B2, “Aminoazole derivative” (Teijin Pharma Limited, priority 2015, dated 2020) come the findings set out here.

Where only a bound is given, the exact number is not on record here.

Assay [1] has as its target T1, androgen receptor (AR-LBD) (Rattus norvegicus, UniProt P15207).
T1 construct: 5 μL of 2×AR-LBD/Fluoromone AL Red Complex contained in the kit; purchased Invitrogen
T1 sequence (P15207 651-882 limits assumed): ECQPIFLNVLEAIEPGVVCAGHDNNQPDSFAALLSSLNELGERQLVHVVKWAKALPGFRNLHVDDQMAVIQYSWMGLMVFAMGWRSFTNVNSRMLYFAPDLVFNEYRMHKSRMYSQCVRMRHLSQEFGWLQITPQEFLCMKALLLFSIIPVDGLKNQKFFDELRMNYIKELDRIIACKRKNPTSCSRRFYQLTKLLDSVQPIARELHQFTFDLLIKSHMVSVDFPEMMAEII
Nature of the assay: Evaluation of androgen receptor affinity (PolarScreen Androgen Receptor Competitor Assay Kit, Red; fluorescence polarization). The settings on record: 22° C. for 5 hours, relative to binding rate of 1 μM DHT, read-out: AR affinity (pEC50) (converted). An outline of the steps: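 FP competition: compound + AR-LBD/Fluoromone AL Red tracer complex, 22° C, 5 h. Reference 1 μM DHT binding rate; pEC50 by 4-parameter fit.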

In the next assay the target is T2, human androgen receptor (Homo sapiens, UniProt P10275).
T2 construct: expressed in transfected cells; host or cells: HEK293
T2 sequence (P10275 1-920): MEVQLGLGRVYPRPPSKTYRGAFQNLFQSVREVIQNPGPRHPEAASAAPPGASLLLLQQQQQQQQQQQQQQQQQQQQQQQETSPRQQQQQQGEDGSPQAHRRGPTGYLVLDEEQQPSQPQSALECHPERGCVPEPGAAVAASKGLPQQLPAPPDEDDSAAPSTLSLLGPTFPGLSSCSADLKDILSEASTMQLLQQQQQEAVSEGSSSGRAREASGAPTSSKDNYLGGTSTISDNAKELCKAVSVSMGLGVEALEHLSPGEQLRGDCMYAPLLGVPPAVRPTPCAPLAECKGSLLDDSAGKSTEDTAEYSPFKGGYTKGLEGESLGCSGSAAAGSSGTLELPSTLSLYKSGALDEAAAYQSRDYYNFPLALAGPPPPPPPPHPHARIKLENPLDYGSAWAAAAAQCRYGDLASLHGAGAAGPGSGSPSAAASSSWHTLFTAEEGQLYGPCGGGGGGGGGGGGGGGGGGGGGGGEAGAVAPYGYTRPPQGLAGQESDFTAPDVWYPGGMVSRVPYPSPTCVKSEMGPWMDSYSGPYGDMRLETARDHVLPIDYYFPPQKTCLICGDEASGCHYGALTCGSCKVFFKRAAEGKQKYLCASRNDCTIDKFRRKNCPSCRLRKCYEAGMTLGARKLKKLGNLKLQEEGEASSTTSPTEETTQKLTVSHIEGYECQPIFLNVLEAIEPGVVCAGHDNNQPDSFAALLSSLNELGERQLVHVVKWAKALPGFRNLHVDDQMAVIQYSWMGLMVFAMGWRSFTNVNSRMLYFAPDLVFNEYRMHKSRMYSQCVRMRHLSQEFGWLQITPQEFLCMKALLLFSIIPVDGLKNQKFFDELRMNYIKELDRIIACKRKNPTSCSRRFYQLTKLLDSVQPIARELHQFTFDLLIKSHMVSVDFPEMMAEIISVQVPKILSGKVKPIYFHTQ
Nature of the assay: Reporter assay of an androgen receptor responsive sequence (luciferase, transiently transfected HEK293 cells). Format: cell-based. The following applies: 24 hours incubation, relative to activity of 100 nM DHT, read-out: AR transcriptive activity (pEC50) (converted). In short, it runs like this: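 Agonism scored as pEC50, fitted by 4-parameter curve against the response to 100 nM DHT, from dual-luciferase readout after 24 h compound treatment. Cells were HEK293 co-transfected (3 h) with human AR expression vector, androgen-responsive firefly reporter and Renilla control, in charcoal-stripped serum.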

Turning to `Cc1sc(N(Cc2ccc3ccccc3c2)c2ccc(C#N)cc2)nc1C(=O)NS(C)(=O)=O` [Compound 25, 2-[4-cyano-N-(2-naphthylmethyl)anilino]-5-methyl-N-methylsulfonyl-thiazole-4-carboxamide], the values for the EC50 (in assay [1]; at human androgen receptor) were 25.1 nM and 50.1 nM, respectively.
`CC(C)=CCN(c1ccc(C#N)cc1)c1nc(C(=O)NS(C)(=O)=O)c(C)s1` [Compound 439, 2-[4-cyano-N-(3-methylbut-2-enyl)anilino]-5-methyl-N-methylsulfonyl-thiazole-4-carboxamide]: the EC50 in assay [1] was 50.1 nM; on human androgen receptor, 126 nM.
For the molecule `Cc1sc(N(CCC2CCCCC2)Cc2ccc(Cl)cc2)nc1C(=O)NS(=O)(=O)C(F)(F)F` [Compound 723, 2-[(4-chlorophenyl)methyl-(2-cyclohexylethyl)amino]-5-methyl-N-(trifluoromethylsulfonyl)thiazole-4-carboxamide], the results for the EC50 (in assay [1]; on human androgen receptor) were 501 nM and over 10000 nM, respectively.
Consider `CCc1oc(N(Cc2ccc(OC(F)(F)F)cc2)c2ccc(C#N)cc2)nc1C(=O)NS(C)(=O)=O` [Compound 632, 2-[4-cyano-N-[[4-(trifluoromethoxy)phenyl]methyl]anilino]-5-ethyl-N-methylsulfonyl-oxazole-4-carboxamide], for which the EC50 is 39.8 nM in assay [1] and 1000 nM at human androgen receptor.
As for `Cc1sc(N(Cc2ccccc2)c2ccc(C#N)cc2)nc1C(=O)NS(=O)(=O)C(F)F` [Compound 69, 2-(N-benzyl-4-cyano-anilino)-N-(difluoromethylsulfonyl)-5-methyl-thiazole-4-carboxamide], the EC50 in assay [1] was 25.1 nM; at human androgen receptor, 1260 nM.
For `CS(=O)(=O)NC(=O)c1nc(N(Cc2ccc(Cl)cc2)c2ccc(C#N)cc2)sc1Br` [Example 248, 5-bromo-2-[N-[(4-chlorophenyl)methyl]-4-cyano-anilino]-N-methylsulfonyl-thiazole-4-carboxamide], the EC50 in assay [1] is 31.6 nM; at human androgen receptor it was 25.1 nM.
In the case of `Cc1sc(N(Cc2ccc(OCC(F)(F)F)cc2)c2ccc(C#N)cc2)nc1C(=O)NS(C)(=O)=O` [Compound 580, 2-[4-cyano-N-[[4-(2,2,2-trifluoroethoxy)phenyl]methyl]anilino]-5-methyl-N-methylsulfonyl-thiazole-4-carboxamide], the EC50 is 25.1 nM in assay [1] and 631 nM at human androgen receptor.
Turning to `Cc1sc(N(Cc2ccc(N3CCCC3=O)cc2)c2ccc(C#N)cc2)nc1C(=O)NS(C)(=O)=O` [Compound 589, 2-[4-cyano-N-[[4-(2-oxopyrrolidin-1-yl)phenyl]methyl]anilino]-5-methyl-N-methylsulfonyl-thiazole-4-carboxamide], the EC50 is 1000 nM in assay [1] and over 10000 nM at human androgen receptor.
Turning to `Cc1sc(N(Cc2cc(C(F)(F)F)ccn2)c2ccc(C#N)cc2)nc1C(=O)NS(C)(=O)=O` [Example 186, 2-[4-cyano-N-[[4-(trifluoromethyl)-2-pyridyl]methyl]anilino]-5-methyl-N-methylsulfonyl-thiazole-4-carboxamide], the EC50 in assay [1] was 200 nM; at human androgen receptor, 631 nM.
In the case of `Cc1sc(N(Cc2ccc(C(F)(F)F)cn2)c2ccc(C#N)cc2)nc1C(=O)NS(C)(=O)=O` [Compound 514, 2-[4-cyano-N-[[5-(trifluoromethyl)-2-pyridyl]methyl]anilino]-5-methyl-N-methylsulfonyl-thiazole-4-carboxamide], the EC50 is 126 nM in assay [1] and 158 nM at human androgen receptor.
In the case of `Cc1sc(N(Cc2ccc3c(c2)C(=O)CCO3)c2ccc(C#N)cc2)nc1C(=O)NS(C)(=O)=O` [Compound 138, 2-[4-cyano-N-[(4-oxochroman-6-yl)methyl]anilino]-5-methyl-N-methylsulfonyl-thiazole-4-carboxamide], the EC50 is 100 nM in assay [1] and 251 nM on human androgen receptor.
For the molecule `Cc1sc(N(Cc2cccc(F)c2)c2ccc(C#N)cc2)nc1C(=O)NS(C)(=O)=O` [Compound 14, 2-[4-cyano-N-[(3-fluorophenyl)methyl]anilino]-5-methyl-N-methylsulfonyl-thiazole-4-carboxamide], the EC50 in assay [1] is 79.4 nM; on human androgen receptor, 50.1 nM.
For the molecule `Cc1sc(N(CCc2ccc(Cl)cc2)Cc2ccc(Cl)cc2)nc1C(=O)NS(C)(=O)=O` [Compound 692, 2-[2-(4-chlorophenyl)ethyl-[(4-chlorophenyl)methyl]amino]-5-methyl-N-methylsulfonyl-thiazole-4-carboxamide], the EC50 was 20 nM in assay [1] and 79.4 nM at human androgen receptor.
For the molecule `Cc1sc(N(Cc2ccc(OC(F)(F)F)cc2)c2ccc(C#N)cc2)nc1C(=O)NS(C)(=O)=O` [Compound 7, 2-[4-cyano-N-[[4-(trifluoromethoxy)phenyl]methyl]anilino]-5-methyl-N-methylsulfonyl-thiazole-4-carboxamide], the figures for the EC50 (in assay [1]; at human androgen receptor) were 31.6 nM and 63.1 nM, respectively.
`CS(=O)(=O)NC(=O)c1nc(N(Cc2ccccc2OC(F)F)c2ccc(C#N)cc2)sc1Cl` [Example 275, 5-chloro-2-[4-cyano-N-[[2-(difluoromethoxy)phenyl]methyl]anilino]-N-methylsulfonyl-thiazole-4-carboxamide]: the EC50 is 63.1 nM in assay [1] and 316 nM at human androgen receptor.
With `Cc1sc(N(Cc2ncc(F)cc2Cl)c2ccc(C#N)cc2)nc1C(=O)NS(C)(=O)=O` [Example 179, 2-[N-[(3-chloro-5-fluoro-2-pyridyl)methyl]-4-cyano-anilino]-5-methyl-N-methylsulfonyl-thiazole-4-carboxamide], the EC50 in assay [1] is 501 nM; on human androgen receptor it was 1000 nM.
Turning to `CS(=O)(=O)NC(=O)c1nc(N(Cc2ccc(F)cn2)c2ccc(C#N)cc2)sc1Br` [Compound 640, 5-bromo-2-[4-cyano-N-[(5-fluoro-2-pyridyl)methyl]anilino]-N-methylsulfonyl-thiazole-4-carboxamide], the EC50 is 398 nM in assay [1] and 316 nM at human androgen receptor.
On to `Cc1sc(N(CC2CCC3(CC2)CC3)c2ccc(C#N)cc2)nc1C(=O)NS(C)(=O)=O` [Compound 489, 2-[4-cyano-N-(spiro[2.5]octan-6-ylmethyl)anilino]-5-methyl-N-methylsulfonyl-thiazole-4-carboxamide], for which the EC50 in assay [1] was 79.4 nM; at human androgen receptor, 1000 nM.
The like results for `Cc1sc(N(Cc2ccccc2)c2ccc(-n3cncn3)cc2)nc1C(=O)NS(C)(=O)=O` [Compound 61, 2-[N-benzyl-4-(1,2,4-triazol-1-yl)anilino]-5-methyl-N-methylsulfonyl-thiazole-4-carboxamide] were, in that order, 501 nM and 3160 nM.
Regarding `COc1ccccc1CCN(c1ccc(C#N)cc1)c1nc(C(=O)NS(C)(=O)=O)c(C)s1` [Compound 376, 2-[4-cyano-N-[2-(2-methoxyphenyl)ethyl]anilino]-5-methyl-N-methylsulfonyl-thiazole-4-carboxamide], the results for the EC50 (in assay [1]; at human androgen receptor) were 100 nM and 6310 nM, respectively.
With `Cc1sc(N(Cc2ccc(C#N)cc2)c2ccc(C#N)cc2)nc1C(=O)NS(C)(=O)=O` [Compound 10, 2-[4-cyano-N-[(4-cyanophenyl)methyl]anilino]-5-methyl-N-methylsulfonyl-thiazole-4-carboxamide], the figures for the EC50 (in assay [1]; on human androgen receptor) were 126 nM and 1000 nM, respectively.
With `CCCCN(c1ccc(C#N)cc1)c1nc(C(=O)NS(C)(=O)=O)c(C)s1` [Compound 64, 2-(N-butyl-4-cyano-anilino)-5-methyl-N-methylsulfonyl-thiazole-4-carboxamide], the EC50 in assay [1] was 251 nM; on human androgen receptor it was 2510 nM.
As for `Cc1sc(N(CCc2ccc(Cl)cc2)Cc2ccc(Cl)cc2)nc1C(=O)NS(=O)(=O)C1CC1` [Compound 694, 2-[2-(4-chlorophenyl)ethyl-[(4-chlorophenyl)methyl]amino]-N-cyclopropylsulfonyl-5-methyl-thiazole-4-carboxamide], the EC50 was 63.1 nM in assay [1] and 3160 nM at human androgen receptor.
